Experimental data reported in ChEMBL document CHEMBL1201862, “PubChem BioAssay data set” (2004).
Active and inactive are the calls of the source.

Experiments:
[1] = target: T1, Aminopeptidase N (Plasmodium falciparum FcB1/Columbia, UniProt O96935); assay: P. falciparum M1AAP inhibitors, biochemical, fluorogenic H-Leu-NHMec substrate, 1536-well (AID 1445); design: species or system Plasmodium falciparum 3D7, 3D7
T1 sequence (O96935 whole entry): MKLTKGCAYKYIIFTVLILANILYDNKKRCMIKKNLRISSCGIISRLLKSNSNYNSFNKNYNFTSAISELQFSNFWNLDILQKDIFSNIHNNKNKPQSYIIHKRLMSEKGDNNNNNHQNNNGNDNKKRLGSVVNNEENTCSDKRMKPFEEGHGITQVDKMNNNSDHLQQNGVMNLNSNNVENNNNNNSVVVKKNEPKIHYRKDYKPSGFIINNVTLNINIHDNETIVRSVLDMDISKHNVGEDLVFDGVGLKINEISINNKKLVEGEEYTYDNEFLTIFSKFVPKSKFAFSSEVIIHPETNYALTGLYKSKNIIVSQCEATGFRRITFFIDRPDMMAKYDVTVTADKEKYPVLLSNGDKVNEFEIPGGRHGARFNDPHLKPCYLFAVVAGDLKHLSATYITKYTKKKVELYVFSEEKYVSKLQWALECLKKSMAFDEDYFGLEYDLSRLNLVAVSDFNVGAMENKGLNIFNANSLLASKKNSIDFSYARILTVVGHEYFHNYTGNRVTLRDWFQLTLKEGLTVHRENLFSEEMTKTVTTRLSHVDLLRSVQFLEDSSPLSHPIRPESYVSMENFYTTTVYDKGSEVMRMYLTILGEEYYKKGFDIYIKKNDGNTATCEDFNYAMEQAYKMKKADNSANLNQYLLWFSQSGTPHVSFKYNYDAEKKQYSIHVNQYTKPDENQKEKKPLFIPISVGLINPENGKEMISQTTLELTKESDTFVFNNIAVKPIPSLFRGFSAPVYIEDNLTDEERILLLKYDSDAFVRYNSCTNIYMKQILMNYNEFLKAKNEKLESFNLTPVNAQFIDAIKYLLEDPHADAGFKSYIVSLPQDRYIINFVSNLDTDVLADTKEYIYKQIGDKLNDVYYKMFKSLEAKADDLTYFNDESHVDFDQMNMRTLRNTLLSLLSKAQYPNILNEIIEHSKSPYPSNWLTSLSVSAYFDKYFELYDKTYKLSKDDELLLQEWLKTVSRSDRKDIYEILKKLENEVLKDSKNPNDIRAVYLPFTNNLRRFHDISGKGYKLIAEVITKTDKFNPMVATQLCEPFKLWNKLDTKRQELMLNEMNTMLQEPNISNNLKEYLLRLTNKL

[2] = target: Dual specificity tyrosine-phosphorylation-regulated kinase 1A (Rattus norvegicus, UniProt Q63470); format: biochemical, Homo sapiens
[3] = target: DNA dC->dU-editing enzyme APOBEC-3A (Homo sapiens, UniProt P31941); assay: Dose Response confirmation of small molecule APOBEC3A DNA Deaminase Inhibitors via a fluorescence-based single-stranded DNA deaminase assay. [Related pubchem assays (depositor defined):AID493011, AID493024]; format: functional
Chain of DNA dC->dU-editing enzyme APOBEC-3A (P31941 whole entry): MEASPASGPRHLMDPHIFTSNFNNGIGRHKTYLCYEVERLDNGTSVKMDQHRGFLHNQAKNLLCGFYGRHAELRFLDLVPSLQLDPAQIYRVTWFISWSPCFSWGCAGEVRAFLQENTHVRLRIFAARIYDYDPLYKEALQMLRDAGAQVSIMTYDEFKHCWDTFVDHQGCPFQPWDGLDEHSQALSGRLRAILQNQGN

[4] = target: DNA dC->dU-editing enzyme APOBEC-3G (Homo sapiens, UniProt Q9HC16); format: functional;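 also: Dose-response counterscreen measuring inhibition of APOBEC3G DNA deaminase activity, run while confirming APOBEC3A inhibitors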
Chain of DNA dC->dU-editing enzyme APOBEC-3G (Q9HC16 whole entry): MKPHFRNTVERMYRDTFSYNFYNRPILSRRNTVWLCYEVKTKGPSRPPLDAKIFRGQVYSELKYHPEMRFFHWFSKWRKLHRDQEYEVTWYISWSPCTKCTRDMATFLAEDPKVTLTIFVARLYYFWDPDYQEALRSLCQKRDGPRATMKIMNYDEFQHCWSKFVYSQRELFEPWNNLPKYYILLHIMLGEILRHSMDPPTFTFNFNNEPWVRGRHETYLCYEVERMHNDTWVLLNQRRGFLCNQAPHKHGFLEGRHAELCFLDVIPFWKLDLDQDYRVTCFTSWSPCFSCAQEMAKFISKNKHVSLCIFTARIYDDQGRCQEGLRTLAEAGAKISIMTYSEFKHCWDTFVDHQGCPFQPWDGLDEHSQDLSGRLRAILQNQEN

[5] = target: T2, Estrogen receptor (Homo sapiens, UniProt P03372);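 also: potency for inhibiting coactivator peptide recruitment to the receptor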
T2 sequence (P03372 whole entry): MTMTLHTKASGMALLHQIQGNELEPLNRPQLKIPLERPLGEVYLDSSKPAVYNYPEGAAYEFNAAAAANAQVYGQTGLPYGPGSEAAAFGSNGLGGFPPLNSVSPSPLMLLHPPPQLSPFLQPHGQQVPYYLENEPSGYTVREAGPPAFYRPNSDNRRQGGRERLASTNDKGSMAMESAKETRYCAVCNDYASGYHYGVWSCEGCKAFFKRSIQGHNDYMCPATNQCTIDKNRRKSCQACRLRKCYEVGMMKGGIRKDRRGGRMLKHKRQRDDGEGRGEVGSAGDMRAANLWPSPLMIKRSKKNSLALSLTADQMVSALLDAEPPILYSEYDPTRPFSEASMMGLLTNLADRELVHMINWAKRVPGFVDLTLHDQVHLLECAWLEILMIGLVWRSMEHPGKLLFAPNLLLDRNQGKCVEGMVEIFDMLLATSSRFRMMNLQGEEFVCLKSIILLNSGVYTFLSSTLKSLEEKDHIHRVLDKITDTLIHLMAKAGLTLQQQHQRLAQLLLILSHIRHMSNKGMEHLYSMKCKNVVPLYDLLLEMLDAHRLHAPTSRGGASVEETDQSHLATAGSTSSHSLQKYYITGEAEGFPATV

[6] = cytotoxicity in HEK-293T cells, dose response, cytotoxicity control for BCR NF-kB inhibitor project, luminescence, B-cell screen hits (AID 489021); format: functional, cell-based;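 also: HEK-293T cells carrying an NF-kB luciferase reporter; cells exposed to compound for about 14 hours before viability readout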
[7] = target: T3, Apoptotic protease-activating factor 1 (Homo sapiens, UniProt O14727); format: functional
T3 sequence (O14727 whole entry): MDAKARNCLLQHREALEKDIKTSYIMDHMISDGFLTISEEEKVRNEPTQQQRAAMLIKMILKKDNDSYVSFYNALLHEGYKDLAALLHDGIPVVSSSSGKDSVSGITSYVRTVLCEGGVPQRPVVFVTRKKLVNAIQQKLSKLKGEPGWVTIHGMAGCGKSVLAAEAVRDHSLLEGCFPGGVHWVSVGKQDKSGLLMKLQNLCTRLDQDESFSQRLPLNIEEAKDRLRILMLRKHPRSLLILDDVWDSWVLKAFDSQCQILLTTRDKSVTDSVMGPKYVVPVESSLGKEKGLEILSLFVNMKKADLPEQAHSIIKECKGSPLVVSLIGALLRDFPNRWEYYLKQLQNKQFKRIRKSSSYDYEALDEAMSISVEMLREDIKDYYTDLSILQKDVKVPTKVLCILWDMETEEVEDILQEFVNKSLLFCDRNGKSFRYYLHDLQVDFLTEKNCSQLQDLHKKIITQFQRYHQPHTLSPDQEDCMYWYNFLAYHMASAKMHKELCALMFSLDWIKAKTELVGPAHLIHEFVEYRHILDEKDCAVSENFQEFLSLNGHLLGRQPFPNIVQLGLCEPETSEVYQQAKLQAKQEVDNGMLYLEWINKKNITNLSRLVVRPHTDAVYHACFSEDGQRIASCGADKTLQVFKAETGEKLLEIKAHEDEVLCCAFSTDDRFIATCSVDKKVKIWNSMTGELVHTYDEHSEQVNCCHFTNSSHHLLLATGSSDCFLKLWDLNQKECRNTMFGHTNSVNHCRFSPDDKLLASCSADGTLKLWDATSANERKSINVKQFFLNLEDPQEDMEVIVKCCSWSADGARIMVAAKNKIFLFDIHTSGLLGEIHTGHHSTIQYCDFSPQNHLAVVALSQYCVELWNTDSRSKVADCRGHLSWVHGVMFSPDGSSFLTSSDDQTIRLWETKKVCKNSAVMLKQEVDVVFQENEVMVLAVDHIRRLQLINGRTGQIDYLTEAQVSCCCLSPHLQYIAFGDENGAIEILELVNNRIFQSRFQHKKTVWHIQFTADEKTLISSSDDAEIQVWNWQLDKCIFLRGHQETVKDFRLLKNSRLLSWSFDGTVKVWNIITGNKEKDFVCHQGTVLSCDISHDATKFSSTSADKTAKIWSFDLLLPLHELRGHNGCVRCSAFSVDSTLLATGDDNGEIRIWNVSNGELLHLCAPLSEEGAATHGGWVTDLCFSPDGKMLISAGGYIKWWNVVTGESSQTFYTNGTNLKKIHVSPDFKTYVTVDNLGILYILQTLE

[8] = tested on: Vero; assay: cells; format: functional; conditions: Chlorocebus sabaeus
[9] = inhibitors of firefly luciferase expression or activity, dose response, H4 neuroglioma cells, luminescence (AID 1990); format: functional, cell-based
[10] = tested on: HEK293; assay: NOD1 signaling inhibitors, primary screen, cell-based, luminescence, uHTS (AID 1578); format: functional; conditions: Homo sapiens
[11] = tested on: HEK293; assay: cells; format: functional, cell-based; conditions: Homo sapiens
[12] = Luminescence Cell-Based Dose Response HTS to Identify Inhibitors of 5'UTR Stem-Loop Driven Prion Protein mRNA Translation in H4 Neuroglioblastoma Cells. [Related pubchem assays: 1827 (Project Summary), 1813 (Primary HTS)]; format: functional
[13] = target: T4, Heat shock factor protein 1 (Mus musculus, UniProt P38532); assay: inhibition of MG132-induced HSE-luciferase signal, confirmation, cell-based, NIH3T3, luminescence, dose retest (AID 2382); format: functional;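 also: NIH3T3 fibroblasts with HSF1-driven luciferase reporter stressed by proteasome inhibitor MG132; luminescence from HSF1-driven luciferase expression after 8 hours of MG132 stress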
T4 sequence (P38532 whole entry): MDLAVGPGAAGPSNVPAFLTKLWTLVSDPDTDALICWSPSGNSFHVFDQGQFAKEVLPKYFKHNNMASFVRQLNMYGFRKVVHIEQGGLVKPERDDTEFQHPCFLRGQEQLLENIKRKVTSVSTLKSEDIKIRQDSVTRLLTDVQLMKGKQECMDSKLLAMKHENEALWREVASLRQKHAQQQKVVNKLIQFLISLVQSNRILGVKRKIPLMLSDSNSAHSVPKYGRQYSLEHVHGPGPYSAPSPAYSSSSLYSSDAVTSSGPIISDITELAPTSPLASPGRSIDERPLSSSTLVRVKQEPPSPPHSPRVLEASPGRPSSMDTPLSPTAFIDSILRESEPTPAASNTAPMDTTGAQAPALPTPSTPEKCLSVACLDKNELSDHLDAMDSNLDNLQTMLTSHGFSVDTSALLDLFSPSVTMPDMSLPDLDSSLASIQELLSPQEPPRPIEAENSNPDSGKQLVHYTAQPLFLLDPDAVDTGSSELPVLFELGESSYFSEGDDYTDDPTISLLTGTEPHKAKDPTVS

[14] = inhibitors of SNCA 5'UTR-driven reporter translation, confirmation, H4 neuroglioma cells, luminescence (AID 1988); format: functional, cell-based
[15] = tested on: HEK293; assay: cells; format: functional, cell-based; conditions: Homo sapiens; remark: listed apart in the source
[16] = target: Nucleotide-binding oligomerization domain-containing protein 2 (Homo sapiens, UniProt Q9HC29); assay: NOD2 signaling inhibitors, cell-based, luminescence, uHTS, HEK293 (AID 1566); format: functional
Chain of Nucleotide-binding oligomerization domain-containing protein 2 (Q9HC29 whole entry, the tested form may be a part): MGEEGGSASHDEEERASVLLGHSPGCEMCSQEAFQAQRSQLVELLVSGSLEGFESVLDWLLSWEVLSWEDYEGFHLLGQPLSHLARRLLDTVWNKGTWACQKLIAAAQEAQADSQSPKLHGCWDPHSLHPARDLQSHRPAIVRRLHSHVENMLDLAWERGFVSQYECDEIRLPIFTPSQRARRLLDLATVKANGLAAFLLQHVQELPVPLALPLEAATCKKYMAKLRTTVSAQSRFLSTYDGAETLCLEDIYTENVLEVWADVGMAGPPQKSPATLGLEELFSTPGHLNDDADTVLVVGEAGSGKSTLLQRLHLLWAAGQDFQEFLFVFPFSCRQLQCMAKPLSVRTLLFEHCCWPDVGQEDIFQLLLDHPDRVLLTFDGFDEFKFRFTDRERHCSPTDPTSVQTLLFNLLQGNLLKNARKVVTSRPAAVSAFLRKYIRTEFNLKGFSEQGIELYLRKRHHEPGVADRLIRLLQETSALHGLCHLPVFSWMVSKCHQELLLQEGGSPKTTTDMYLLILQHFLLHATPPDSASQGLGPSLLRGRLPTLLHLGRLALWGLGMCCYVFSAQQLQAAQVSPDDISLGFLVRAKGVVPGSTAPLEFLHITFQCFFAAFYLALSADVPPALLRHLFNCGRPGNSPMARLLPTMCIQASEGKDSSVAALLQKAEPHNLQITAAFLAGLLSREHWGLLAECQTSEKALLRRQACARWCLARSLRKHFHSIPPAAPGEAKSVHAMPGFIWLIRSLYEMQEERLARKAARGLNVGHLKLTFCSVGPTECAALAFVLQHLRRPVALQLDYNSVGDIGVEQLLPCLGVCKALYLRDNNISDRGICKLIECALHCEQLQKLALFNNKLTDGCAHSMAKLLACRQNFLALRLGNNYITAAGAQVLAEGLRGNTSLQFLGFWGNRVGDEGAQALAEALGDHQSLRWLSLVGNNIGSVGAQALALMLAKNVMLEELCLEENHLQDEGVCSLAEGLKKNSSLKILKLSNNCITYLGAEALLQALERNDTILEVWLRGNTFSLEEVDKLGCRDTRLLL

[17] = tested on: HEK293; assay: NOD2 signaling inhibitors in MDP-stimulated cells, cell-based, uHTS, luminescence (AID 2001); format: functional; conditions: Homo sapiens
[18] = tested on: HEK293; assay: cells; format: functional, cell-based; conditions: Homo sapiens; remark: listed apart in the source
[19] = Luminescence Cell-Based Dose Retest to Confirm Inhibitors of Cancer Stem Cells. [Related pubchem assays (depositor defined):AID2717, AID2721]; format: functional; conditions: Homo sapiens
[20] = tested on: INS1; assay: beta cell apoptosis inhibitors, cytokine rescue, dose response, luminescence, retest (AID 449756); format: functional, cell-based; conditions: Rattus norvegicus;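 also: cell death triggered by IL-1 beta plus TNF-alpha plus IFN-gamma mixture; protective hits raise ATP signal compared with cytokine alone wells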
[21] = cytotoxicity in HPDE-C7 cells, cell-based, fluorescence, HTS (AID 430); format: functional; conditions: Homo sapiens
[22] = cytotoxicity in KRAS-transformed pancreatic duct cells, primary screen, cell-based, fluorescence, HTS (AID 431); format: functional; conditions: Homo sapiens;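 also: cell line used: HPDE-C7K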

With COc1ccc2cc3cc(C(=O)NCC4CCCO4)oc3nc2c1 (centres undefined) the IC50 [1] was 79.3 µM (active) and the AC50 [2] was 7.86 µM (active).

In the case of CC(=O)Nc1nnc(SCc2ccc(C(=O)Nc3ccccc3F)cc2)s1, the IC50 [3] is reported as 5.85 µM (active) and the IC50 [4] is reported as 6.06 µM (active).

With Cn1c(SCC(=O)Nc2ccc3c(c2)oc2ccccc23)nnc1-c1ccccc1 the IC50 [5] was > 50 µM (not active), the IC50 [3] was 5.4 µM (active) and the IC50 [4] was 6.7 µM (active).

In the case of Cc1ccc(-c2nn3c(C)nnc3c3ccccc23)cc1S(=O)(=O)NCc1ccco1, the IC50 [6] is reported as > 80 µM (inactive), the IC50 [7] is reported as 15.2 µM (active) and the CC50 [8] is reported as 3.28 µM (active).

With O=C(O)CCSc1ncnc2sc(-c3ccccc3)cc12 the EC50 [9] was 4.36 µM (active), the EC50 [10] was 7.39 µM (active) and the IC50 [11] was 1.54 µM (active). The EC50 [12] was 9.35 µM (active), the EC50 [13] was 0.643 µM (active) and the EC50 [14] was 4.68 µM (active). The IC50 [15] was > 20 µM (inactive), the EC50 [16] was 4.19 µM (active) and the IC50 [17] was 3.59 µM (active). The IC50 [18] was > 20 µM (inactive) and the IC50 [6] was > 80 µM (inactive).

For COc1cc(NC(=O)c2cc3ccccc3cc2O)c(OC)cc1Cl, the EC50 [10] was 4.15 µM (active), the IC50 [11] was > 20 µM (inactive) and the IC50 [15] was 14 µM (active). For the same compound, the EC50 [16] was 5.66 µM (active), the IC50 [17] was 4.06 µM (inactive) and the IC50 [18] was > 20 µM (inactive). The AC50 [19] was 0.612 µM (active) and the AC50 [20] was 4.03 µM (active).

For C[N+]1(CCCCCCC(=O)C=NO)CCCCCC1, the IC50 [3] was 4.03 µM (active) and the IC50 [4] was 3.9 µM (active).

For O=C(Nc1ccc2nn(-c3ccccc3)nc2c1)c1ccc2c(c1)OCCO2, the EC50 [10] was > 20 µM (inactive), the IC50 [11] was 5.31 µM (active) and the IC50 [15] was > 20 µM (inactive). The EC50 [21] was > 20 µM (not active), the EC50 [16] was > 20 µM (inactive) and the IC50 [17] was 8.39 µM (active). For the same compound, the IC50 [18] was > 20 µM (inactive) and the EC50 [22] was > 20 µM (not active).

In the case of COc1ccc(-c2csc3nc(-c4cccnc4)nc(N4CCC(C(N)=O)CC4)c23)cc1OC, the IC50 [6] is reported as 43.7 µM (inactive).

In the case of COC(=O)Cc1cc(=O)oc2cc(O)ccc12, the IC50 [1] is reported as 36.6 µM (active).

With CC1(C)Oc2ccc3ccc(=O)oc3c2C(/C=N/CCO)=C1O the IC50 [3] was 2.47 µM (active) and the IC50 [4] was 6.83 µM (active).

For C/C(=N\Nc1nc(Nc2ccccc2)nc(N2CCOCC2)n1)c1cccs1, the IC50 [6] was > 80 µM (inactive).
